Test results reported in patent US20240059710A1, “KRAS G12D Inhibitors” (Jacobio Pharmaceuticals Co., Ltd., priority 2020, published 2024).
Read-outs that look alike come from different tables or passages of the source.

Tests used:
[1] = molecular target: T1, GppNp-loaded HIS-KRAS (G12D, aa 1-169) / cRAF RBD (Homo sapiens, UniProt P01116, G12D); test: GTP-KRAS and cRAF interaction assay; type: binding; conditions: HTRF, 2 hours at 25° C.
T1 construct: GppNp-loaded HIS-KRAS (G12D, aa 1-169)
Method in brief: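 GppNp-loaded KRAS G12D (2.0 nM) preincubated 15 min with compound, then cRAF RBD (35 nM) and HTRF antibodies added for 2 h at 25° C with 100 μM GTP final. Ratios normalized to DMSO and no-KRAS controls; IC50 by 4-parameter fit.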

[2] = molecular target: T2, GDP-loaded HIS-KRAS (G12D, aa 1-169) (Homo sapiens, UniProt P01116, G12D); test: SOS1 catalyzed nucleotide exchange assay; type: biochemical; conditions: SOS1 ExD, TR-FRET, 4 hours at 25° C.
T2 construct: GDP-loaded HIS-KRAS (G12D, aa 1-169)
Method in brief: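 Compound was preincubated 15 min with 1.5 nM GDP-loaded KRAS G12D (final 5 nM GDP). SOS1 ExD (aa 564-1049, 0.5 µM), 80 nM BODIPY FL GTP and anti-His Tb antibody were then added for 4 h at 25 °C. The TR-FRET 515/486 ratio was normalized between DMSO and no-KRAS wells, and IC50 came from 4-parameter fits.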

[3] = test system: AGS cells expressing KRAS G12D; test: Phospho-ERK1/2(THR202/TYR204) HTRF assay; type: cell-based; conditions: 2 hours incubation, read-out: AGS p-ERK IC50
Method in brief: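 Cells seeded 40,000/well, incubated overnight, then treated with compound in F12K with 0.1% FBS for 2 h at 37 °C. Lysates assayed for phospho-ERK1/2 by HTRF after 4 h at 25 °C; IC50 from 4-parameter logistic fit.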

AsPC-1 = test: Cell growth inhibition assay (AsPC-1); type: cell-based; conditions: AsPC-1, 6 days incubation, CellTiter-Glo
Method in brief: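 AsPC-1 cells seeded at 1000 cells/well in RPMI-1640 with 10% FBS, attached overnight, then exposed to compound dilutions for 6 days at 37 °C/5% CO2. Viability read by CellTiter-Glo luminescence; IC50 from a 4-parameter logistic fit.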

AGS = test: Cell growth inhibition assay (AGS); type: cell-based; conditions: 6 days incubation, CellTiter-Glo
Method in brief: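 AGS cells in F12K/10% FBS plated at 500 cells/well, attached overnight, then exposed to compounds for 6 days at 37° C./5% CO2. Viability by CellTiter-Glo luminescence; IC50 from 4-parameter logistic fit.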

T1 sequence (P01116 1-169 isoform P01116-2 G12D): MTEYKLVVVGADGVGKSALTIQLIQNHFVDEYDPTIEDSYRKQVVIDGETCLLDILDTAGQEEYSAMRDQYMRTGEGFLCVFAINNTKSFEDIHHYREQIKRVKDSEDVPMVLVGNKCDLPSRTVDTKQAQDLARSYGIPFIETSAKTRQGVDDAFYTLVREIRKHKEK
T2 sequence (P01116 1-169 isoform P01116-2 G12D): as above

| Compound | IC50 [1] [µM] | IC50 [2] [µM] | IC50 ([3]; Homo sapiens) [µM] | IC50 (AsPC-1; Homo sapiens, ASPC1, 144 h) [µM] | IC50 (AGS; Homo sapiens, 144 h) [µM] | IC50 [3] [µM] | IC50 (AsPC-1) [µM] | IC50 (AGS) [µM] |
| --- | --- | --- | --- | --- | --- | --- | --- | --- |
| C#Cc1cccc2cc(O)cc(-c3c(F)cc4c(N5CC6CCC(C5)N6)nc(OCC5(CN6CCOCC6)CC5)nc4c3C)c12 [Compound 101] | 0.277 | 0.00159 | 0.125 | 0.113 | 0.0396 | – | – | – |
| C#Cc1cccc2cc(O)cc(-c3c(CO)cc4c(N5CC6CCC(C5)N6)nc(OCC5(CN6CCOCC6)CC5)nc4c3F)c12 [Compound 102] | 0.0742 | 0.00642 | 0.0404 | 1.94 | 0.0825 | – | – | – |
| C#Cc1cccc2cc(O)cc(-c3c(C(=C)C)cc4c(N5CC6CCC(C5)N6)nc(OCC5(CN6CCOCC6)CC5)nc4c3F)c12 [Compound 105] | 0.0156 | 0.00157 | 0.013 | 0.0633 | 0.0184 | – | – | – |
| C#Cc1c(F)ccc2cc(O)cc(-c3c(C(C)C)cc4c(N5CC6CCC(C5)N6)nc(OCC5(CN6CCOCC6)CC5)nc4c3F)c12 [Compound 106] | 0.0013 | 0.000332 | 0.0086 | 0.0128 | 0.0018 | – | – | – |
| C#Cc1cccc2cc(O)cc(-c3c(Cl)cc4c(N5CC6CCC(C5)N6)nc(OCC5(CN6CCOCC6)CC5)nc4c3Cl)c12 [Compound 107] | 0.524 | 0.00411 | 0.14 | 0.282 | 0.107 | – | – | – |
| C#Cc1cccc2cc(O)cc(-c3cc4nc(OCC5(CN6CCOCC6)CC5)nc(N5CC6CCC(C5)N6)c4cc3F)c12 [Compound 108] | 0.298 | 0.0281 | 0.019 | 0.0636 | 0.0219 | – | – | – |
| C#Cc1cccc2cc(O)cc(-c3cc4nc(OCC5(CN6CCOCC6)CC5)nc(N5CC6CCC(C5)N6)c4cc3CC)c12 [Compound 109] | 0.14 | 0.0485 | 0.0519 | 0.0869 | 0.0283 | – | – | – |
| C#Cc1cccc2cc(O)cc(-c3ccc4c(N5CC6CCC(C5)N6)nc(OCC5(CN6CCC[C@H](F)C6)CC5)nc4c3F)c12 [Compound 113] | 0.124 | 0.0126 | – | – | – | 0.0159 | 0.0184 | 0.00435 |
| C#Cc1cccc2cc(O)cc(-c3ccc4c(N5CC6CCC(C5)N6)nc(OCC5(CN6CC[C@@H](F)C6)CC5)nc4c3F)c12 [Compound 114] | 0.12 | 0.0123 | 0.00902 | 0.0187 | 0.00447 | – | – | – |
| C#Cc1cccc2cc(O)cc(-c3ccc4c(N5CC6CCC(C5)N6)nc(OCC5(CN6CCOC[C@H]6C)CC5)nc4c3F)c12 [Compound 115] | 0.121 | 0.0282 | 0.00423 | 0.00752 | 0.00423 | – | – | – |
| C#Cc1cccc2cc(O)cc(-c3ccc4c(N5CC6CCC(C5)N6)nc(OCC5(CN6CCCC6)CC5)nc4c3F)c12 [Compound 116] | 0.11 | 0.0125 | 0.0108 | 0.189 | 0.0208 | – | – | – |
| C#Cc1cccc2cc(O)cc(-c3ccc4c(N5CC6CCC(C5)N6)nc(OCC5(CN6CCC(OC)CC6)CC5)nc4c3F)c12 [Compound 117] | 0.129 | 0.0171 | 0.0103 | 0.0856 | 0.0124 | – | – | – |
| C#Cc1cccc2cc(O)cc(-c3cc4nc(OCC5(CN6CCOCC6)CC5)nc(N5CC6CCC(C5)N6)c4cc3C)c12 [Compound 118] | 0.165 | 0.0192 | 0.064 | 0.145 | 0.0311 | – | – | – |
| C#Cc1cccc2cc(O)cc(-c3cc4nc(OCC5(CN6CCOCC6)CC5)nc(N5CC6CCC(C5)N6)c4cc3C(F)(F)F)c12 [Compound 119] | 0.2 | 0.0429 | 0.113 | 0.362 | 0.0816 | – | – | – |
| C#Cc1cccc2cc(O)cc(-c3cc4nc(OCC5(CN6CCOCC6)CC5)nc(N5CC6CCC(C5)N6)c4cc3OC)c12 [Compound 120] | 0.307 | 0.0374 | 0.0199 | 0.18 | 0.0281 | – | – | – |
| C#Cc1cccc2cc(O)cc(-c3ccc4c(N5CC6CCC(C5)N6)nc(OCC5(CN6CCOCC6)CC5)nc4c3Cl)c12 [Compound 121] | 0.318 | 0.0288 | 0.0197 | 0.067 | 0.0112 | – | – | – |
| C#Cc1c(Cl)ccc2cc(O)cc(-c3c(F)cc4c(N5CC6CCC(C5)N6)nc(OCC5(CN6CCOCC6)CC5)nc4c3F)c12 [Compound 126] | 0.0247 | 0.00207 | 0.0208 | 0.0143 | 0.000486 | – | – | – |
| C#Cc1c(Cl)ccc2cc(O)cc(-c3ccc4c(N5CC6CCC(C5)N6)nc(OCC5(CN6CCOCC6)CC5)nc4c3F)c12 [Compound 127] | 0.0157 | 0.00118 | 0.00261 | 0.024 | 0.00182 | – | – | – |
| C#Cc1cccc2cc(O)cc(-c3ccc4c(N5CC6CCC(C5)N6)nc(OCC5(CN6CCCCC6)CC5)nc4c3F)c12 [Compound 131] | 0.0904 | 0.0091 | 0.00986 | 0.055 | 0.0134 | – | – | – |
| C#Cc1cccc2cc(O)cc(-c3ccc4c(N5CC6CCC(C5)N6)nc(OCC5(CN6CCOCC6)CC5)nc4c3C)c12 [Compound 132] | 0.794 | 0.0257 | 0.0964 | 0.111 | 0.0332 | – | – | – |
| Oc1cc(Cl)c(C2CC2)c(-c2c(Cl)cc3c(N4CC5CCC(C4)N5)nc(OCC4(CN5CCOCC5)CC4)nc3c2F)c1 [Compound 133] | 0.688 | 0.00782 | 0.456 | 0.714 | 0.14 | – | – | – |
